Measured values: the supplement of paper PMC11061612

Columns and labels:
Test in all cases: combination Emax (second highest fraction inhibited in the dose matrix, 72 h); higher = more inhibition; extreme values may be limits of the assay
[1] = system: SCC-3 (B-Cell Non-Hodgkin's Lymphoma)
Method in brief: (§1)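 Cell lines in DMEM/F12 or RPMI with 10% FBS were plated in 1536-well plates, held 24 hours at 37°C, 5% CO2, then given two-drug dose matrices for 72 hours (DMSO typically 0.2%). Viability was read by CellTiter-Glo 2.0 luminescence and scaled as inhibition from 0 (vehicle wells) to 1 (blank wells). Combination Emax is the second-highest inhibition in the matrix; Bliss excess is observed combination effect minus expected EA + EB − EA·EB, EA and EB being single-agent effects.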

[2] = system: OCUM-1 (Gastric Carcinoma)
Method in brief: as §1

[3] = system: NCI-H322M (Lung Adenocarcinoma)
Method in brief: as §1

[4] = system: DG-75 (Burkitt's Lymphoma)
Method in brief: as §1

[5] = system: OCUB-M (Breast Carcinoma)
Method in brief: as §1

U-87-MG (Glioblastoma) = system: U-87-MG (Glioblastoma)
Method in brief: as §1

[6] = system: NCI-H513 (Other Solid Carcinomas)
Method in brief: as §1

[7] = system: ASH-3 (Thyroid Gland Carcinoma)
Method in brief: as §1

NB7 (Neuroblastoma) = system: NB7 (Neuroblastoma)
Method in brief: as §1

[8] = system: TGBC11TKB (Gastric Carcinoma)
Method in brief: as §1

[9] = system: HC-1 (Other Blood Carcinomas)
Method in brief: as §1

[10] = system: KLE (Endometrial Carcinoma)
Method in brief: as §1

BT-20 (Breast Carcinoma) = system: BT-20 (Breast Carcinoma)
Method in brief: as §1

NH-12 (Neuroblastoma) = system: NH-12 (Neuroblastoma)
Method in brief: as §1

GOTO (Neuroblastoma) = system: GOTO (Neuroblastoma)
Method in brief: as §1

EW-13 (Ewing's Sarcoma) = system: EW-13 (Ewing's Sarcoma)
Method in brief: as §1

EW-18 (Ewing's Sarcoma) = system: EW-18 (Ewing's Sarcoma)
Method in brief: as §1

[11] = system: NCI-H2347 (Lung Adenocarcinoma)
Method in brief: as §1

[12] = system: PFSK-1 (Other Solid Carcinomas)
Method in brief: as §1

[13] = system: PF-382 (T-Lymphoblastic Leukemia)
Method in brief: as §1

Compound	combination Emax [1]	combination Emax [2]	combination Emax [3]	combination Emax [4]	combination Emax [5]	combination Emax (U-87-MG (Glioblastoma))	combination Emax [6]	combination Emax [7]	combination Emax (NB7 (Neuroblastoma))	combination Emax [8]	combination Emax [9]	combination Emax [10]	combination Emax (BT-20 (Breast Carcinoma))	combination Emax (NH-12 (Neuroblastoma))	combination Emax (GOTO (Neuroblastoma))	combination Emax (EW-13 (Ewing's Sarcoma))	combination Emax (EW-18 (Ewing's Sarcoma))	combination Emax [11]	combination Emax [12]	combination Emax [13]
NC1(C(=O)N[C@@H](CCO)c2ccc(Cl)cc2)CCN(c2ncnc3[nH]ccc23)CC1 [Capivasertib] + CC(=O)c1c(C)c2cnc(Nc3ccc(N4CCNCC4)cn3)nc2n(C2CCCC2)c1=O [Palbociclib] (first compound max 10 µM, 7x7, partner max 10 µM)	0.479	0.582	0.639	0.744	0.994	0.585	0.368	0.581	0.689	0.166	0.632	0.377	0.81	0.519	0.81	0.296	0.807	0.271	0.489	0.743
COc1cccc(OCCCN)c1-c1cc(Nc2cnc(C#N)cn2)n[nH]1 [Prexasertib] + CCc1c2c(nc3ccc(O)cc13)-c1cc3c(c(=O)n1C2)COC(=O)[C@]3(O)CC [SN-38] (first compound max 1 µM, 7x7, partner max 0.3 µM)	1	0.787	0.982	0.957	0.989	0.74	0.695	0.989	0.985	0.982	1	0.593	0.965	0.935	0.94	0.84	0.77	0.879	0.815	0.994
C[C@@H](c1ccc2nccn2c1)n1nnc2ncc(-c3cnn(C)c3)nc21 [Savolitinib] + Cc1c2c(nn1C)CSCc1cc(n(C)n1)CSc1cc(c3ccccc3c1)OCCCc1c(C(=O)O)n(C)c3c-2c(Cl)ccc13 [AZD5991] (first compound max 1 µM, 7x7, partner max 1 µM)	0.279	0.257	0.086	0.11	0.899	0.288	0.0607	0.299	0.462	0.507	0.216	0.162	0.465	0.202	0.804	0.313	0.874	0.107	0.93	0.134
COc1nnc2ccc(N3CCC(c4ccc(OCCN5CCN(C)C(=O)[C@H]5C)cc4)CC3)nn12 [AZD5153] + C=CCn1c(=O)c2cnc(Nc3ccc(N4CCN(C)CC4)cc3)nc2n1-c1cccc(C(C)(C)O)n1 [AZD1775] (first compound max 1 µM, partner max 1 µM)	0.9	0.511	0.841	0.905	0.572	0.53	0.437	0.742	0.587	0.831	0.948	0.679	0.471	0.91	0.919	0.407	0.687	0.413	0.744	0.999
Cc1c2c(nn1C)CSCc1cc(n(C)n1)CSc1cc(c3ccccc3c1)OCCCc1c(C(=O)O)n(C)c3c-2c(Cl)ccc13 [AZD5991] + CN(C)CCCOc1ccc(-c2ccc3ncc4c(c3c2)n(C2CCOCC2)c(=O)n4C)cn1 [AZD0156] (first compound max 1 µM, 7x7, partner max 1 µM)	0.396	0.113	0.279	0.395	0.949	0.253	0.228	0.344	0.499	0.476	0.37	0.262	0.636	0.226	0.757	0.401	0.94	0.239	0.993	0.337
C[C@@H](c1ccc2nccn2c1)n1nnc2ncc(-c3cnn(C)c3)nc21 [Savolitinib] + CC1(C)CCC(CN2CCN(c3ccc(C(=O)NS(=O)(=O)c4ccc(NCC5CCOCC5)c([N+](=O)[O-])c4)c(Oc4cnc5[nH]ccc5c4)c3)CC2)=C(c2ccc(Cl)cc2)C1 [Venetoclax] (first compound max 1 µM, 7x7, partner max 1 µM)	0.0971	0.187	0.0582	0.16	0.116	0.252	0.0676	0.16	0.108	0.0823	0.173	0.0864	0.0828	0.406	0.266	0.128	0.229	0.116	0.302	0.134
NC1(C(=O)N[C@@H](CCO)c2ccc(Cl)cc2)CCN(c2ncnc3[nH]ccc23)CC1 [Capivasertib] + CCN(CCO)CCCOc1ccc2c(Nc3cc(CC(=O)Nc4cccc(F)c4)[nH]n3)ncnc2c1 [AZD2811] (first compound max 10 µM, 7x7, partner max 1 µM)	0.309	0.683	0.338	0.606	1	0.648	0.19	0.451	0.613	0.244	0.629	0.332	0.765	0.728	0.793	0.388	0.811	0.231	0.532	0.916
CN(CCO)CC[C@H](CSc1ccccc1)Nc1ccc(S(=O)(=O)NC(=O)c2ccc(N3CCC([C@@H](O)c4ccccc4-c4ccc(Cl)cc4)CC3)cc2)cc1S(=O)(=O)C(F)(F)F [AZD4320] + C[C@@H]1COCCN1C2=NC(=NC(=C2)C3(CC3)[S@](=N)(=O)C)C4=C5C=CNC5=NC=C4 [AZD6738] (first compound max 1 µM, 7x7, partner max 10 µM)	0.941	0.914	0.915	0.768	0.823	0.501	0.452	0.662	0.691	0.935	0.958	0.608	0.765	1	0.909	0.887	0.897	0.656	0.781	1
CN(CCO)CC[C@H](CSc1ccccc1)Nc1ccc(S(=O)(=O)NC(=O)c2ccc(N3CCC([C@@H](O)c4ccccc4-c4ccc(Cl)cc4)CC3)cc2)cc1S(=O)(=O)C(F)(F)F [AZD4320] + C=CCn1c(=O)c2cnc(Nc3ccc(N4CCN(C)CC4)cc3)nc2n1-c1cccc(C(C)(C)O)n1 [AZD1775] (first compound max 1 µM, partner max 1 µM)	0.779	0.87	0.851	0.82	0.487	0.187	0.707	0.531	0.689	0.964	1	0.573	0.787	0.98	0.855	0.665	0.888	0.571	0.742	1
Cc1c2c(nn1C)CSCc1cc(n(C)n1)CSc1cc(c3ccccc3c1)OCCCc1c(C(=O)O)n(C)c3c-2c(Cl)ccc13 [AZD5991] + CC1(C)CCC(CN2CCN(c3ccc(C(=O)NS(=O)(=O)c4ccc(NCC5CCOCC5)c([N+](=O)[O-])c4)c(Oc4cnc5[nH]ccc5c4)c3)CC2)=C(c2ccc(Cl)cc2)C1 [Venetoclax] (first compound max 1 µM, 7x7, partner max 1 µM)	0.358	0.0835	0.155	0.144	0.996	0.174	0.156	0.325	0.513	0.792	0.762	0.156	0.889	0.892	0.795	0.675	0.919	0.138	1	0.337
NC1(C(=O)N[C@@H](CCO)c2ccc(Cl)cc2)CCN(c2ncnc3[nH]ccc23)CC1 [Capivasertib] + Cn1cnc2c(F)c(Nc3ccc(Br)cc3Cl)c(C(=O)NOCCO)cc21 [Selumetinib] (first compound max 10 µM, 7x7, partner max 10 µM)	0.363	0.937	0.582	0.398	0.998	0.685	0.409	0.773	0.28	0.462	0.601	0.484	0.809	0.585	0.469	0.249	0.656	0.423	0.516	0.764
Cc1c2c(nn1C)CSCc1cc(n(C)n1)CSc1cc(c3ccccc3c1)OCCCc1c(C(=O)O)n(C)c3c-2c(Cl)ccc13 [AZD5991] + CCN(CCO)CCCOc1ccc2c(Nc3cc(CC(=O)Nc4cccc(F)c4)[nH]n3)ncnc2c1 [AZD2811] (first compound max 1 µM, 7x7, partner max 1 µM)	0.51	0.394	0.188	0.229	1	0.326	0.197	0.3	0.872	0.582	0.737	0.267	0.787	0.752	0.709	0.454	0.919	0.213	0.998	0.923
